Assay results as given in patent publication US20260232767A1, “INTERLEUKIN-23 RECEPTOR ANTAGONIST PEPTIDES FOR USE IN THE TREATMENT OF PSORIASIS” (Janssen Pharmaceutica NV, priority 2023, published 2026).

System: subjects with moderate-to-severe plaque psoriasis
Experiment: Hematology and chemistry laboratory values by CTCAE grade
Format: in vivo, human
Settings: through Week 56
Description: The proportion of participants who discontinued study intervention due to one or more AEs was low (n=4). All events were singular in nature with no apparent dose-dependent increase (Table 48 and Table 52). The number of participants with abnormal hematology and chemistry laboratory values with CTCAE toxicity grade≥3 were low through the end of the study (Table 43 through Table 46). There was no apparent dose-dependent increase in laboratory abnormality occurrences.

CC(=O)NCCCC[C@@H]1NC(=O)[C@H](Cc2c[nH]c3c(C)cccc23)NC(=O)[C@H]([C@@H](C)O)NC(=O)[C@H](CC(N)=O)NC(=O)[C@@H](NC(C)=O)C(C)(C)SSC(C)(C)[C@@H](C(=O)N[C@@H](Cc2ccc(OCCN)cc2)C(=O)N[C@@H](Cc2ccc3ccccc3c2)C(=O)NC2(C(=O)N[C@@H](CCC(=O)O)C(=O)N[C@@H](CC(N)=O)C(=O)N[C@@H](Cc3cccnc3)C(=O)N(C)CC(N)=O)CCOCC2)NC1=O [IL-23 receptor antagonist peptide, Ac-[Pen]*-N-T-[W(7-Me)]-[Lys(Ac)]-[Pen]*-Phe[4-(2-aminoethoxy)]-[2-Nal]-[THP]-E-N-[3-Pal]-Sarc-NH2 (*[Pen]-[Pen]* formdisulfidebond)]
Platelets (×10^9/L) (decreased): subjects with Grade 1 (25 mg QD): 5
Platelets (×10^9/L) (decreased): subjects with Grade 2 (25 mg QD): 0
Platelets (×10^9/L) (decreased): subjects with Grade 3 (25 mg QD): 0
Platelets (×10^9/L) (decreased): subjects with Grade 4 (25 mg QD): 0
Platelets (×10^9/L) (decreased): subjects with postbaseline maximum toxicity grade >0 (25 mg QD): 5
Potassium (decreased): Subjects with Grade 1 (25 mg QD): 0
Potassium (decreased): Subjects with Grade 2 (25 mg QD): 0
Potassium (decreased): Subjects with Grade 3 (25 mg QD): 0
Potassium (decreased): Subjects with Grade 4 (25 mg QD): 0
Potassium (decreased): Subjects with postbaseline maximum toxicity grade >0 (25 mg QD): 0
Potassium (increased): Subjects with Grade 3 (25 mg QD): 0
Potassium (increased): Subjects with Grade 4 (25 mg QD): 0
Potassium (increased): Subjects with postbaseline maximum toxicity grade >0 (25 mg QD): 7
Sodium (decreased): Subjects with Grade 2 (25 mg QD): 0
Sodium (decreased): Subjects with Grade 3 (25 mg QD): 0
Sodium (decreased): Subjects with Grade 4 (25 mg QD): 0
Sodium (increased): Subjects with Grade 2 (25 mg QD): 0
Sodium (increased): Subjects with Grade 3 (25 mg QD): 0
Sodium (increased): Subjects with Grade 4 (25 mg QD): 0
Total Bilirubin (increased): Subjects with Grade 2 (25 mg QD): 0
Total Bilirubin (increased): Subjects with Grade 3 (25 mg QD): 0
Total Bilirubin (increased): Subjects with Grade 4 (25 mg QD): 0
Triglycerides (increased): Subjects with Grade 4 (25 mg QD): 0
WBC (×10^9/L) (decreased): subjects with Grade 2 (25 mg QD): 0
WBC (×10^9/L) (decreased): subjects with Grade 3 (25 mg QD): 0
WBC (×10^9/L) (decreased): subjects with Grade 4 (25 mg QD): 0
WBC (×10^9/L) (increased): subjects with Grade 1 (25 mg QD): 0
WBC (×10^9/L) (increased): subjects with Grade 2 (25 mg QD): 0
WBC (×10^9/L) (increased): subjects with Grade 3 (25 mg QD): 0
WBC (×10^9/L) (increased): subjects with Grade 4 (25 mg QD): 0
WBC (×10^9/L) (increased): subjects with postbaseline maximum toxicity grade >0 (25 mg QD): 0
Alanine Aminotransferase (increased): Subjects with Grade 2 (50 mg QD): 0
Alanine Aminotransferase (increased): Subjects with Grade 3 (50 mg QD): 0
Alanine Aminotransferase (increased): Subjects with Grade 4 (50 mg QD): 0
Albumin (decreased): Subjects with Grade 1 (50 mg QD): 0
Albumin (decreased): Subjects with Grade 2 (50 mg QD): 0
Albumin (decreased): Subjects with Grade 3 (50 mg QD): 0
Albumin (decreased): Subjects with Grade 4 (50 mg QD): 0
Albumin (decreased): Subjects with postbaseline maximum toxicity grade >0 (50 mg QD): 0
Alkaline Phosphatase (increased): Subjects with Grade 2 (50 mg QD): 0
Alkaline Phosphatase (increased): Subjects with Grade 3 (50 mg QD): 0
Alkaline Phosphatase (increased): Subjects with Grade 4 (50 mg QD): 0
Aspartate Aminotransferase (increased): Subjects with Grade 2 (50 mg QD): 0
Aspartate Aminotransferase (increased): Subjects with Grade 3 (50 mg QD): 0
Aspartate Aminotransferase (increased): Subjects with Grade 4 (50 mg QD): 0
Calcium corrected (decreased): Subjects with Grade 2 (50 mg QD): 0
Calcium corrected (decreased): Subjects with Grade 3 (50 mg QD): 0
Calcium corrected (decreased): Subjects with Grade 4 (50 mg QD): 0
Calcium corrected (increased): Subjects with Grade 1 (50 mg QD): 0
Calcium corrected (increased): Subjects with Grade 2 (50 mg QD): 0
Calcium corrected (increased): Subjects with Grade 3 (50 mg QD): 0
Calcium corrected (increased): Subjects with Grade 4 (50 mg QD): 0
Calcium corrected (increased): Subjects with postbaseline maximum toxicity grade >0 (50 mg QD): 0
Cholesterol (increased): Subjects with Grade 2 (50 mg QD): 0
Cholesterol (increased): Subjects with Grade 3 (50 mg QD): 0
Cholesterol (increased): Subjects with Grade 4 (50 mg QD): 0
Creatine Kinase (increased): Subjects with Grade 3 (50 mg QD): 0
Creatinine (increased): Subjects with Grade 2 (50 mg QD): 0
Creatinine (increased): Subjects with Grade 3 (50 mg QD): 0
Creatinine (increased): Subjects with Grade 4 (50 mg QD): 0
Gamma Glutamyl Transferase (increased): Subjects with Grade 2 (50 mg QD): 0
Gamma Glutamyl Transferase (increased): Subjects with Grade 3 (50 mg QD): 0
Gamma Glutamyl Transferase (increased): Subjects with Grade 4 (50 mg QD): 0
Glucose (decreased): Subjects with Grade 2 (50 mg QD): 0
Glucose (decreased): Subjects with Grade 3 (50 mg QD): 0
Glucose (decreased): Subjects with Grade 4 (50 mg QD): 0
Hemoglobin (g/L) (decreased): subjects with Grade 3 (50 mg QD): 0
Hemoglobin (g/L) (decreased): subjects with Grade 4 (50 mg QD): 0
Hemoglobin (g/L) (decreased): subjects with postbaseline maximum toxicity grade >0 (50 mg QD): 5
Hemoglobin (g/L) (increased): subjects with Grade 1 (50 mg QD): 0
Hemoglobin (g/L) (increased): subjects with Grade 2 (50 mg QD): 0
Hemoglobin (g/L) (increased): subjects with Grade 3 (50 mg QD): 0
Hemoglobin (g/L) (increased): subjects with Grade 4 (50 mg QD): 0
Hemoglobin (g/L) (increased): subjects with postbaseline maximum toxicity grade >0 (50 mg QD): 0
Lymphocytes (×10^9/L) (decreased): subjects with Grade 3 (50 mg QD): 0
Lymphocytes (×10^9/L) (decreased): subjects with Grade 4 (50 mg QD): 0
Lymphocytes (×10^9/L) (increased): subjects with Grade 1 (50 mg QD): 0
Lymphocytes (×10^9/L) (increased): subjects with Grade 2 (50 mg QD): 0
Lymphocytes (×10^9/L) (increased): subjects with Grade 3 (50 mg QD): 0
Lymphocytes (×10^9/L) (increased): subjects with Grade 4 (50 mg QD): 0
Lymphocytes (×10^9/L) (increased): subjects with postbaseline maximum toxicity grade >0 (50 mg QD): 0
Magnesium (decreased): Subjects with Grade 1 (50 mg QD): 0
Magnesium (decreased): Subjects with Grade 2 (50 mg QD): 0
Magnesium (decreased): Subjects with Grade 3 (50 mg QD): 0
Magnesium (decreased): Subjects with Grade 4 (50 mg QD): 0
Magnesium (decreased): Subjects with postbaseline maximum toxicity grade >0 (50 mg QD): 0
Magnesium (increased): Subjects with Grade 2 (50 mg QD): 0
Magnesium (increased): Subjects with Grade 3 (50 mg QD): 0
Magnesium (increased): Subjects with Grade 4 (50 mg QD): 0
Neutrophils (×10^9/L) (decreased): subjects with Grade 3 (50 mg QD): 0
Neutrophils (×10^9/L) (decreased): subjects with Grade 4 (50 mg QD): 0
Platelets (×10^9/L) (decreased): subjects with Grade 1 (50 mg QD): 0
Platelets (×10^9/L) (decreased): subjects with Grade 2 (50 mg QD): 0
Platelets (×10^9/L) (decreased): subjects with Grade 3 (50 mg QD): 0
Platelets (×10^9/L) (decreased): subjects with Grade 4 (50 mg QD): 0
Platelets (×10^9/L) (decreased): subjects with postbaseline maximum toxicity grade >0 (50 mg QD): 0
Potassium (decreased): Subjects with Grade 1 (50 mg QD): 0
Potassium (decreased): Subjects with Grade 2 (50 mg QD): 0
Potassium (decreased): Subjects with Grade 3 (50 mg QD): 0
Potassium (decreased): Subjects with Grade 4 (50 mg QD): 0
Potassium (decreased): Subjects with postbaseline maximum toxicity grade >0 (50 mg QD): 0
Potassium (increased): Subjects with Grade 2 (50 mg QD): 0
Potassium (increased): Subjects with Grade 4 (50 mg QD): 0
Sodium (decreased): Subjects with Grade 1 (50 mg QD): 0
Sodium (decreased): Subjects with Grade 2 (50 mg QD): 0
Sodium (decreased): Subjects with Grade 3 (50 mg QD): 0
Sodium (decreased): Subjects with Grade 4 (50 mg QD): 0
Sodium (decreased): Subjects with postbaseline maximum toxicity grade >0 (50 mg QD): 0
Sodium (increased): Subjects with Grade 1 (50 mg QD): 0
Sodium (increased): Subjects with Grade 2 (50 mg QD): 0
Sodium (increased): Subjects with Grade 3 (50 mg QD): 0
Sodium (increased): Subjects with Grade 4 (50 mg QD): 0
Sodium (increased): Subjects with postbaseline maximum toxicity grade >0 (50 mg QD): 0
Total Bilirubin (increased): Subjects with Grade 3 (50 mg QD): 0
Total Bilirubin (increased): Subjects with Grade 4 (50 mg QD): 0
Total Bilirubin (increased): Subjects with postbaseline maximum toxicity grade >0 (50 mg QD): 5
Triglycerides (increased): Subjects with Grade 1 (50 mg QD): 0
Triglycerides (increased): Subjects with Grade 4 (50 mg QD): 0
WBC (×10^9/L) (decreased): subjects with Grade 3 (50 mg QD): 0
WBC (×10^9/L) (decreased): subjects with Grade 4 (50 mg QD): 0
WBC (×10^9/L) (increased): subjects with Grade 1 (50 mg QD): 0
WBC (×10^9/L) (increased): subjects with Grade 2 (50 mg QD): 0
WBC (×10^9/L) (increased): subjects with Grade 3 (50 mg QD): 0
WBC (×10^9/L) (increased): subjects with Grade 4 (50 mg QD): 0
WBC (×10^9/L) (increased): subjects with postbaseline maximum toxicity grade >0 (50 mg QD): 0
Alanine Aminotransferase (increased): Subjects with Grade 1 (100 mg BID): 10
Alanine Aminotransferase (increased): Subjects with Grade 3 (100 mg BID): 0
Alanine Aminotransferase (increased): Subjects with Grade 4 (100 mg BID): 0
Albumin (decreased): Subjects with Grade 1 (100 mg BID): 0
Albumin (decreased): Subjects with Grade 2 (100 mg BID): 0
Albumin (decreased): Subjects with Grade 3 (100 mg BID): 0
Albumin (decreased): Subjects with Grade 4 (100 mg BID): 0
Albumin (decreased): Subjects with postbaseline maximum toxicity grade >0 (100 mg BID): 0
Alkaline Phosphatase (increased): Subjects with Grade 1 (100 mg BID): 0
Alkaline Phosphatase (increased): Subjects with Grade 2 (100 mg BID): 0
Alkaline Phosphatase (increased): Subjects with Grade 3 (100 mg BID): 0
Alkaline Phosphatase (increased): Subjects with Grade 4 (100 mg BID): 0
Alkaline Phosphatase (increased): Subjects with postbaseline maximum toxicity grade >0 (100 mg BID): 0
Aspartate Aminotransferase (increased): Subjects with Grade 1 (100 mg BID): 7
Aspartate Aminotransferase (increased): Subjects with Grade 4 (100 mg BID): 0
Aspartate Aminotransferase (increased): Subjects with postbaseline maximum toxicity grade >0 (100 mg BID): 9
Calcium corrected (decreased): Subjects with Grade 3 (100 mg BID): 0
Calcium corrected (decreased): Subjects with Grade 4 (100 mg BID): 0
Calcium corrected (increased): Subjects with Grade 1 (100 mg BID): 0
Calcium corrected (increased): Subjects with Grade 2 (100 mg BID): 0
Calcium corrected (increased): Subjects with Grade 3 (100 mg BID): 0
Calcium corrected (increased): Subjects with Grade 4 (100 mg BID): 0
Calcium corrected (increased): Subjects with postbaseline maximum toxicity grade >0 (100 mg BID): 0
Cholesterol (increased): Subjects with Grade 2 (100 mg BID): 0
Cholesterol (increased): Subjects with Grade 3 (100 mg BID): 0
Cholesterol (increased): Subjects with Grade 4 (100 mg BID): 0
